Test results published in patent US20190374533A1, “COMPOUNDS AND METHODS FOR INHIBITING NHE-MEDIATED ANTIPORT IN THE TREATMENT OF DISORDERS ASSOCIATED WITH FLUID RETENTION OR SALT OVERLOAD AND GASTROINTESTINAL TRACT DISORDERS” (Ardelyx, Inc., priority 2008, published 2019).

How the values were obtained:
[1] = Determination of compound Cmax and AUC; assay type: in vivo; details: rat; Sprague-Dawley rats, oral gavage, serum 0.5-4 h; actual oral dose (mg/kg) given
Summary of the method: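 Sprague-Dawley rats dosed orally by gavage at 2.5 mg/kg; serum sampled at 0.5, 1, 2 and 4 h. Acetonitrile protein precipitation, then LC/MS/MS quantitation against a standard curve.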

[2] = Parallel artificial membrane permeability assay (PAMPA); details: pH 7.4
rat NHE-3 = molecular target: T1, rat NHE-3 (Rattus norvegicus, UniProt P26433); experiment: Cell-based assay of NHE-3 activity (Pharmacological Test Example 1); details: OK cells expressing rat NHE-3; 0-30 uM test compound, 5 uM EIPA
T1 construct: expressed in transfected cells; host or cells: Opossum kidney (OK) cells (ATCC), electroporated
T1 sequence (P26433 29-831): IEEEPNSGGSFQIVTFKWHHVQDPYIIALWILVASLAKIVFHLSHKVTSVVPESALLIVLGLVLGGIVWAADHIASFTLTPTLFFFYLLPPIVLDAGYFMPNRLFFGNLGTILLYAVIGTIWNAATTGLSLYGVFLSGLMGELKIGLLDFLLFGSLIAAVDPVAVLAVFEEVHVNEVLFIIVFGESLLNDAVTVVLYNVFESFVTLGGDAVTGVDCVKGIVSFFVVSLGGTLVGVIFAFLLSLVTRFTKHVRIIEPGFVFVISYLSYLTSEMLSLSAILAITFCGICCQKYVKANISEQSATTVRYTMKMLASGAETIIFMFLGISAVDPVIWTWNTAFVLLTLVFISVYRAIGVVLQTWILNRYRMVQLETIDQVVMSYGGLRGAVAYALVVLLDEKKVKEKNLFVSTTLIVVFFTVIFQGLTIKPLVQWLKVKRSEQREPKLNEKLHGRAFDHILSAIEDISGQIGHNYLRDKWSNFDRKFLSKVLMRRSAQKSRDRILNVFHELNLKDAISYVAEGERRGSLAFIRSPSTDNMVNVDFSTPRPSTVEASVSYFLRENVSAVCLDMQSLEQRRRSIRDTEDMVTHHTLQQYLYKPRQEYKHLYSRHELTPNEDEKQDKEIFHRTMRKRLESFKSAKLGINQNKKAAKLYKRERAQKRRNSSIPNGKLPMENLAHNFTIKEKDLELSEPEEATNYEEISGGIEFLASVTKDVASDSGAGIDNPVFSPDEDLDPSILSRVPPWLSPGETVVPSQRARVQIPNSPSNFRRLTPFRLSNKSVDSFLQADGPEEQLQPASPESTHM
Summary of the method: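 Na+-dependent H+ exchange tracked with the pH-sensitive dye BCECF in opossum kidney cells transiently expressing rat NHE-3. Intracellular acidification by NH4Cl prepulse, then 10 min in ammonium- and Na+-free HEPES, pH 7.4, room temperature. Initial rates averaged over 3-6 replicates give pIC50.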

AUC [1]	Cmax [1]	Papp A→B at 3 h, 20 uM [2]	rat NHE-3 Average pIC50 (rat NHE-3)	Compound
53 ng·h/mL	21 ng/mL	0.53 ×10⁻⁶ cm/s	–	CN1Cc2c(Cl)cc(Cl)cc2C(c2cccc(S(=O)(=O)NCCP(=O)(O)O)c2)C1 (centres unmarked) [Example 1, 2-(3-(6,8-dichloro-2-methyl-1,2,3,4-tetrahydroisoquinolin-4-yl)phenylsulfonamido)ethylphosphonic acid]
–	–	0.61 ×10⁻⁶ cm/s	5 to 6	CN1Cc2c(Cl)cc(Cl)cc2C(c2cccc(NS(=O)(=O)NCCP(=O)(O)O)c2)C1 (centres unmarked) [Example 31, 2-(N-(3-(6,8-dichloro-2-methyl-1,2,3,4-tetrahydroisoquinolin-4-yl)phenyl)sulfamoylamino)ethylphosphonic acid]
–	–	1.3 ×10⁻⁶ cm/s	5 to 6	C/C(=C\c1cc(F)c(Oc2ccc(S(=O)(=O)NCCCP(=O)(O)O)cc2)c(F)c1)C(=O)N=C(N)N [Example 54, (E)-3-(4-(4-(3-(diaminomethyleneamino)-2-methyl-3-oxoprop-1-enyl)-2,6-difluorophenoxy)phenylsulfonamido)propylphosphonic acid]
–	–	0.1 ×10⁻⁶ cm/s	–	CN1Cc2c(Cl)cc(Cl)cc2C(c2ccc(NC(=O)NCP(=O)(O)O)cc2)C1 (centres unmarked) [Example 38, (3-(4-(6,8-dichloro-2-methyl-1,2,3,4-tetrahydroisoquinolin-4-yl)phenyl)ureido)methylphosphonic acid]
–	–	0.4 ×10⁻⁶ cm/s	–	CN1Cc2c(Cl)cc(Cl)cc2C(c2ccc(S(=O)(=O)NCc3ccc(CP(=O)(O)O)cc3)cc2)C1 (centres unmarked) [Example 14, (4-((4-(6,8-dichloro-2-methyl-1,2,3,4-tetrahydroisoquinolin-4-yl)phenylsulfonamido)methyl)phenyl) methylphosphonic acid]
–	–	0.2 ×10⁻⁶ cm/s	–	CN1Cc2c(Cl)cc(Cl)cc2C(c2cccc(S(=O)(=O)N(CC(=O)O)CP(=O)(O)O)c2)C1 (centres unmarked) [Example 8, 2-(3-(6,8-dichloro-2-methyl-1,2,3,4-tetrahydroisoquinolin-4-yl)-N-(phosphonomethyl)phenylsulfonamido)acetic acid]
–	–	0.8 ×10⁻⁶ cm/s	–	CN1Cc2c(Cl)cc(Cl)cc2C(c2cccc(S(=O)(=O)Nc3ccc(CP(=O)(O)O)cc3)c2)C1 (centres unmarked) [Example 3, 4-(3-(6,8-dichloro-2-methyl-1,2,3,4-tetrahydroisoquinolin-4-yl)phenylsulfonamido)benzylphosphonic acid]
–	–	0.17 ×10⁻⁶ cm/s	–	CN1Cc2c(Cl)cc(Cl)cc2C(c2cccc(NC(=O)N[C@@H](CC(=O)O)C(=O)O)c2)C1 (stereo partly drawn) [Example 35, (2S)-2-(3-(3-(6,8-dichloro-2-methyl-1,2,3,4-tetrahydroisoquinolin-4-yl)phenyl)ureido)succinic acid]
–	–	0.5 ×10⁻⁶ cm/s	–	CN1Cc2c(Cl)cc(Cl)cc2C(c2cccc(S(=O)(=O)NCCCS(=O)(=O)O)c2)C1 (centres unmarked) [Example 7, 3-(3-(6,8-dichloro-2-methyl-1,2,3,4-tetrahydroisoquinolin-4-yl)phenylsulfonamido)propane-1-sulfonic acid]
–	–	< 0.02 ×10⁻⁶ cm/s	–	CN1Cc2c(Cl)cc(Cl)cc2C(c2ccc(S(=O)(=O)NCCOCCOCCNS(=O)(=O)c3ccc(C4CN(C)Cc5c(Cl)cc(Cl)cc54)cc3)cc2)C1 (centres unmarked) [Example 27, N,N′-(2,2′-(ethane-1,2-diylbis(oxy))bis(ethane-2,1-diyl))bis(4-(6,8-dichloro-2-methyl-1,2,3,4-tetrahydroisoquinolin-4-yl)benzenesulfonamide)]

The next lines start with the molecule.

Compound	AUC [1]	Cmax [1]	Papp A→B at 3 h, 20 uM [2]	rat NHE-3 Average pIC50 (rat NHE-3)
C/C(=C\c1cc(F)c(Oc2ccc(S(=O)(=O)NCc3ccc(CP(=O)(O)O)cc3)cc2)c(F)c1)C(=O)N=C(N)N [Example 52, (E)-4-((4-(4-(3-(diaminomethyleneamino)-2-methyl-3-oxoprop-1-enyl)-2,6-difluorophenoxy)phenylsulfonamido)methyl)benzylphosphonic acid]	–	–	1.61 ×10⁻⁶ cm/s	5 to 6
CN1Cc2c(Cl)cc(Cl)cc2C(c2ccc(NS(=O)(=O)NCCP(=O)([O-])[O-])cc2)C1.[Na+].[Na+] (centres unmarked) [Example 30, 2-(N-(4-(6,8-dichloro-2-methyl-1,2,3,4-tetrahydroisoquinolin-4-yl)phenyl)sulfamoylamino)ethylphosphonic acid]	–	–	0.56 ×10⁻⁶ cm/s	5 to 6
NC(N)=Nc1nc(-c2ccc(N3CCN(CCO)CC3)cc2)c2cc(Cl)ccc2n1 [Example 69, 2-(6-chloro-4-(4-(4-(2-hydroxyethyl)piperazin-1-yl)phenyl)quinazolin-2-yl)guanidine]	–	–	0.3 ×10⁻⁶ cm/s	6 to 7
NC(N)=Nc1nc(-c2cccc(N3CCN(C(=O)[C@H](O)[C@@H](O)[C@H](O)[C@H](O)CO)CC3)c2)c2cc(Cl)ccc2n1 [Example 63, 2-(6-chloro-4-(3-(4-((2R,3S,4R,5R)-2,3,4,5,6-pentahydroxyhexanoyl)piperazin-1-yl)phenyl)quinazolin-2-yl)guanidine]	–	–	0.43 ×10⁻⁶ cm/s	5 to 6
N=C(N)N1CCN(c2cccc(-c3nc(N=C(N)N)nc4ccc(Cl)cc34)c2)CC1 [Example 60, 4-(3-(6-chloro-2-(diaminomethyleneamino)quinazolin-4-yl)phenyl)piperazine-1-carboximidamide]	–	–	0.99 ×10⁻⁶ cm/s	6 to 7
NC(N)=Nc1nc(-c2cccc(N3CCN(CCO)CC3)c2)c2cc(Cl)ccc2n1 [Example 68, 2-(6-chloro-4-(3-(4-(2-hydroxyethyl)piperazin-1-yl)phenyl)quinazolin-2-yl)guanidine]	–	–	0.35 ×10⁻⁶ cm/s	6 to 7
C/C(=C\c1cc(F)c(Oc2ccc(S(=O)(=O)NCCOCCOCCOCCNC(=O)CCCCCCC(=O)NCCOCCOCCOCCNS(=O)(=O)c3ccc(Oc4c(F)cc(/C=C(\C)C(=O)N=C(N)N)cc4F)cc3)cc2)c(F)c1)C(=O)N=C(N)N [Example 47, N,N′-(13,20 dioxo-3,6,9, 24, 27, 30-hexaoxa-12, 21-diazadotriacontane-1,32-diyl)bis[(E)-N-(diaminomethylene)-3-(3,5-difluoro-4-(4-sulfamoylphenoxy)phenyl)-2-methylacrylamide]]	–	–	< 0.01 ×10⁻⁶ cm/s	>7
NC(N)=Nc1nc(-c2cccc(N3CCN(CCCC(=O)O)CC3)c2)c2cc(Cl)ccc2n1 [Example 70, 4-(4-(3-(6-chloro-2-(diaminomethyleneamino)quinazolin-4-yl)phenyl)piperazin-1-yl)butanoic acid]	–	–	0.4 ×10⁻⁶ cm/s	–
NC(N)=Nc1nc(-c2ccc(N3CCN(CC(=O)O)CC3)cc2)c2cc(Cl)ccc2n1 [Example 61, 2-(4-(4-(6-chloro-2-(diaminomethyleneamino)quinazolin-4-yl)phenyl)piperazin-1-yl)acetic acid]	–	–	0.1 ×10⁻⁶ cm/s	–
C/C(=C\c1cc(F)c(Oc2ccc(S(=O)(=O)NCP(=O)(O)O)cc2)c(F)c1)C(=O)N=C(N)N [Example 56, (E)-(4-(4-(3-(diaminomethyleneamino)-2-methyl-3-oxoprop-1-enyl)-2,6-difluorophenoxy)phenylsulfonamido)methylphosphonic acid]	–	–	0.5 ×10⁻⁶ cm/s	–
C/C(=C\c1cc(F)c(Oc2ccc(S(=O)(=O)NC(=O)NCCN(C)C)cc2)c(F)c1)C(=O)N=C(N)N [Example 75, (E)-N-(diaminomethylene)-3-(4 (4-(N-(2-(dimethylamino)ethylcarbamoyl)sulfamoyl)phenoxy)-3,5-difluorophenyl)-2-methylacrylamide]	–	–	0.4 ×10⁻⁶ cm/s	–
C/C(=C\c1cc(F)c(Oc2ccc(S(=O)(=O)NC(CC(=O)O)C(=O)O)cc2)c(F)c1)C(=O)N=C(N)N (centres unmarked) [Example 59, (E)-2-(4-(4-(3-(diaminomethyleneamino)-2-methyl-3-oxoprop-1-enyl)-2,6-difluorophenoxy)phenylsulfonamido)succinic acid]	–	–	0.1 ×10⁻⁶ cm/s	–
COCCNC(=O)NS(=O)(=O)c1ccc(Oc2c(F)cc(/C=C(\C)C(=O)N=C(N)N)cc2F)cc1 [Example 58, (E)-N-(diaminomethylene)-3-(3,5-difluoro-4-(4-(N-(2-methoxyethylcarbamoyl)sulfamoyl)phenoxy)phenyl)-2-methylacrylamide]	–	–	0.2 ×10⁻⁶ cm/s	–
C/C(=C\c1cc(F)c(Oc2ccc(S(=O)(=O)Nc3ccc(CP(=O)(O)O)cc3)cc2)c(F)c1)C(=O)N=C(N)N [Example 53, (E)-4-(4-(4-(3-(diaminomethyleneamino)-2-methyl-3-oxoprop-1-enyl)-2,6-difluorophenoxy)phenylsulfonamido)benzylphosphonic acid]	–	–	1.6 ×10⁻⁶ cm/s	–
